Source: US9101603B2, “Targeting of CYP1B1 in the treatment of head and neck cancer and lung cancer” (Institute for Cancer Research, priority 2010, dated 2015)

What was measured:
Format in all cases: cell-based
MSK-Leuk1 cells [1] = test: Cell proliferation (total DNA content, Fluorescent DNA Quantitation kit); details: vector-expressing cells; 1 nM E2; 72 h; not statistically significant
Protocol: (§1) For all the experiments that involved estradiol (E2) exposure, MSK-Leuk1 cells were cultured in phenol red-free and serum-free DermaLife® K Medium (Lifeline Cell Technology, Walkersville, Md.). SCC cells were cultured in their respective media with no phenol red, supplemented with charcoal-stripped serum (Gibco, Carlsbad, Calif.). Cells were incubated for 48 h to remove endogenous estrogens and then plated at 70% confluence. After 24 h, the medium was replaced with either control medium containing vehicle (0.01% ethanol) or medium supplemented with 1 nM E2 (Sigma-Aldrich, St. Louis, Mo.). Cells were harvested after the appropriate treatment period and analyzed.
Cell proliferation. Fifty thousand cells/well were plated in 6-well plates. After the appropriate treatment, the DNA content of the cells, an indirect measure of proliferation, was determined using a Fluorescent DNA Quantitation kit (Bio-Rad Laboratories, Hercules, Calif.). In brief, cells were harvested, sonicated in 0.1×TEN assay buffer (Bio-Rad Laboratories) for 5 s, and incubated with a Hoechst dye mixture (BioRad Laboratories) for 1 h. Total DNA was measured using Fluoroscan Ascent FL (Thermo Fisher Scientific, Waltham, Mass.) at an excitation wavelength of 360 nm and an emission wavelength of 460 nm.

MSK-Leuk1 cells [2] = test: Cell motility assay (scratch gap closure, 16 h), vector- or CYP1B1 shRNA-expressing cells; details: 1 nM E2, vector- and CYP1B1 shRNA-expressing MSK-Leuk1 cells
Protocol: as §1
Cell motility assay. MSK-Leuk1 cells, expressing either vector or CYP1B1 shRNA, were cultured in phenol red-free and serum-free medium for 48 h and then plated at 70% confluence. After 24 h, the cells were treated with either vehicle or E2 (1 nM) in triplicate, as described above. […] The area devoid of cells was measured on every image using MetaMorph 7.0 (Molecular Devices, Inc., Sunnyvale, Calif.). The gap closure percentages were calculated as (area at 0 h−area at 16 h)/(area at 0 h).
In addition, a time-lapse movie capturing the process of gap closure in vector-expressing MSK-Leuk1 cells was obtained. […] The percentage of proliferating cells (those rounded up for cell division) was counted in this representative area.

MSK-Leuk1 cells [3] = test: Apoptosis assay (Guava Nexin kit, annexin V positive cells); details: 72 h; for decrease of apoptosis by exposure to E2: 1 nM E2; for effect on the E2-mediated decrease in apoptosis: fulvestrant 1 μM added to 1 nM E2
Protocol: as §1
Apoptosis assay. Apoptosis was assessed using the Guava Nexin kit (Millipore, Billerica, Mass.). Fifty thousand cells were plated per well in 6-well plates. After the appropriate treatment, floating cells were collected, combined with attached cells following trypsinization, and resuspended in DermaLife® K Medium (Lifeline Cell Technology, Walkersville, Md.) supplemented with 5% FBS. The cell suspension (100 μl) was incubated with 100 μl of Guava® Nexin Reagent for 20 min, according to the manufacturer's instructions. Two thousand cells were analyzed from each sample using the Guava® EasyCyte™ system, and the resulting data were expressed as a percentage of apoptotic cells (annexin V positive cells/total number of cells counted).

| SMILES | induction of cell proliferation by E2 exposure (MSK-Leuk1 cells [1]) | effect of E2 treatment on motility (MSK-Leuk1 cells [2]) | decrease of apoptosis by exposure to E2 (MSK-Leuk1 cells [3]; CYP1B1 shRNA-expressing cells, P=0.015) | decrease of apoptosis by exposure to E2 (MSK-Leuk1 cells [3]; vector-expressing cells, P=0.030) | effect on the E2-mediated decrease in apoptosis (MSK-Leuk1 cells [3]) | effect on the E2-mediated decrease in apoptosis (MSK-Leuk1 cells [3]; listed as Fulvestrant) |
| --- | --- | --- | --- | --- | --- | --- |
| C[C@]12CC[C@@H]3c4ccc(O)cc4CC[C@H]3[C@@H]1CC[C@@H]2O [E2, 17β-estradiol] | 10% | not affected | 30.1% | 25.5% |  |  |
| C[C@]12CC[C@@H]3c4ccc(O)cc4C[C@@H](CCCCCCCCC[S+]([O-])CCCC(F)(F)C(F)(F)F)[C@H]3[C@@H]1CC[C@@H]2O (stereo partly drawn) [fulvestrant] |  |  |  |  | restored | restores |
